Data on eight molecules can be found in article PMC9325269, “New Polymethoxyflavones from Hottonia palustris Evoke DNA Biosynthesis-Inhibitory Activity in An Oral Squamous Carcinoma (SCC-25) Cell Line” (Molecules, 2022).

Where two headings read alike, the source gives them in different places.

The test system of test [1] is human tongue squamous carcinoma cells SCC-25. As to the kind of experiment: MTT cell viability assay, SCC-25 cells. Format: cell-based. To be noted: read-out: IC50 of viability, SCC-25. In general terms: Formazan colour is commonly taken as a measure of viable cells.
Experimental: (§1) The cell viability and proliferation assays were performed on the human tongue squamous cell line (SCC-25). The cells were obtained from ATCC (CRL-1628, American Type Culture Collection, Manassas, VA, USA) and cultured in a 1:1 mixture of DMEM (Dulbecco’s minimal essential medium) and Ham’s F12 medium (Thermo Fisher Scientific, Waltham, MA, USA, 31330038) supplemented with 400 ng/mL hydrocortisone (Sigma-Aldrich, Burlington, MA, USA, H0135), 10% FBS (fetal bovine serum, Thermo Fisher Scientific, Waltham, MA, USA, 10270106), and penicillin–streptomycin solution (Thermo Fisher Scientific, Waltham, MA, USA, 15140122). Furthermore, for the cytotoxicity assay, human skin fibroblasts (CCD25Sk) cultured in DMEM (Thermo Fisher Scientific, Waltham, MA, USA, 41966029) supplemented with 10% FBS and penicillin-streptomycin solution were used. The cells were incubated at 37 °C in the air with 5% CO2. […] MTT (M5655), SDS (L3771), and cisplatin (cPT), which was used as a positive control (P4394), were purchased from Sigma-Aldrich (Burlington, MA, USA).
(§2) The cell viability assay leans on the transformation of yellow tetrazolinum bromide MTT solution to the purple derivative of formazan via succinate dehydrogenase, an enzyme present in viable cells. Cells were cultured (1 × 10^4 per well) on a 96-well plate to receive 70% of their confluency. After 24 h and 48 h of incubation with the studied samples (prepared as DMSO solutions directly before the assay), the cells were washed with PBS (phosphate-buffered saline). Subsequently, the MTT solution was added, and the plates were incubated at 37 °C for 2 h. Then, formazan crystals were dissolved in 200 μL of DMSO with Sorensen’s glycine buffer and were shacked for 10 min.
The next test deals with normal fibroblasts. As to the kind of experiment: MTT cell viability assay, normal fibroblasts. The test is classed as cell-based, human. To be noted: read-out: IC50 of viability, Fibroblasts.
Test [2] concerns SCC-25 squamous carcinoma cells. As to the kind of experiment: Morphological profile of SCC-25 cells (microphotographs). The test is classed as cell-based, human. To be noted: 24 h and 48 h; extracts 100 µg/mL, compounds 100 µM.
In test [3] the test system is DNA biosynthesis in SCC-25 cells. Description: [3H]-thymidine incorporation (DNA biosynthesis / proliferation) assay. To be noted: Homo sapiens; 48 h treatment of SCC-25 cells (as stated in abstract); read-out: DNA biosynthesis-inhibitory activity IC50. Format: cell-based. (Dividing cells build labelled thymidine or BrdU into new DNA.)
Experimental: Considering this fact, an evaluation determining whether the cytotoxicity of the samples was the result of their influence on the biosynthesis of cell DNA was carried out by assessing the capability of intracellular thymidine incorporation.
The proliferation of the tested cells was estimated as [^3H]-thymidine incorporation into the DNA of the cells treated with the studied samples [40]. Firstly, cells (1 × 10^4 per well) were placed in 24-well plates and were allowed to adhere for 24 h. […] After incubation for 24 h and 48 h at 37 °C, the cells were rinsed with PBS and solubilized with 1 mL of 0.1 M NaOH (sodium hydroxide) containing 1% SDS (sodium dodecyl sulfate). Then, radioactivity was recorded in a Liquid Scintillation Analyzer (Perkin-Elmer, Waltham, MA, USA) after correction to 9 mL with scintillation liquid.
The test system of the next test is melanoma cells. Conditions: cited from earlier work.
Setting [4] is: 24 h, MTT, compounds 6.25–200 µM.
[5] abbreviates: 48 h, MTT, compounds 6.25–200 µM.
Where [6] appears, read: Homo sapiens, SCC-25, 24 h, MTT, compounds 6.25–200 µM.
The mark [7] stands for this setting: Homo sapiens, SCC-25, 48 h, MTT, compounds 6.25–200 µM.

Experimental for normal fibroblasts: as §1, §2

A word on the IC50: it is the midpoint of a concentration-inhibition curve. As to `N.N.[Cl][Pt][Cl]` [cPT, cisplatin, reference compound], the concentration for half-maximal inhibition (IC50) is 26.1 ± 1.03 µM in test [1] (setting [4]), 7.58 ± 0.37 µM in test [1] (setting [5]), over 200 µM in the test with normal fibroblasts (setting [4]) and 40.5 ± 2.01 µM in the test with normal fibroblasts (setting [5]). Moreover, the “morphological profile, cell adhesion and number of cells versus untreated” value in test [2] is given as “decreased the number of cells”.
In the case of `COc1cccc(OC)c1-c1cc(=O)c2c(O)cccc2o1` [Compound 4, 5-hydroxy-2-(2,6-dimethoxyphenyl)-4H-chromen-4-one], the IC50 in test [1] (Homo sapiens, SCC-25, 24 h) is over 200 µM; in test [1] (Homo sapiens, SCC-25, 48 h) it was over 200 µM.
For the molecule `O=C(CC(=O)c1ccccc1)c1ccccc1` [Compound 1, 1,3-diphenylpropane-1,3-dione], the IC50 is 40 ± 1.89 µM in test [1] (Homo sapiens, SCC-25, 24 h); 29.1 ± 1.45 µM in test [1] (Homo sapiens, SCC-25, 48 h); over 200 µM with normal fibroblasts (Homo sapiens, Fibroblast, 24 h); over 200 µM in the test on normal fibroblasts (Homo sapiens, Fibroblast, 48 h); 29.1 ± 1.45 µM in test [3]. Besides, the “morphological profile, cell adhesion and number of cells versus untreated” value in test [2] is listed as “decreased the number of cells”. In the test with melanoma cells, the cell cycle effect result is “cell-cycle deregulation”.
For `COc1ccc(O)c(-c2cc(=O)c3c(O)cccc3o2)c1OC` [Compound 7, 5-hydroxy-2-(6-hydroxy-2,3-dimethoxyphenyl)-4H-chromen-4-one], the concentration for half-maximal inhibition (IC50) is 78.2 ± 3.25 µM in test [1] (Homo sapiens, SCC-25, 24 h); 40.6 ± 1.65 µM in test [1] (Homo sapiens, SCC-25, 48 h); over 200 µM with normal fibroblasts (Homo sapiens, Fibroblast, 24 h); over 200 µM in the test on normal fibroblasts (Homo sapiens, Fibroblast, 48 h); 40.6 ± 1.65 µM in test [3]. Besides, the “morphological profile, cell adhesion and number of cells versus untreated” value in test [2] is on record as “decreased the number of cells”.
For `O=c1cc(-c2ccccc2)oc2cccc(O)c12` [Compound 2, 5-hydroxy-2-phenyl-4H-chromen-4-one], the half-inhibitory concentration (IC50) in test [1] (setting [6]) and in test [1] (setting [7]) was over 200 µM each time.
`COc1cccc(O)c1-c1cc(=O)c2c(O)cccc2o1` [Compound 6, 5-hydroxy-2-(2-hydroxy-6-methoxyphenyl)-4H-chromen-4-one]: the IC50 in test [1] (setting [6]) and in test [1] (setting [7]) was over 200 µM each time.
As to `COc1ccccc1-c1cc(=O)c2c(O)cccc2o1` [Compound 3, 5-hydroxy-2-(2-methoxyphenyl)-4H-chromen-4-one], the IC50 in test [1] (Homo sapiens, SCC-25, 24 h) is over 200 µM; in test [1] (Homo sapiens, SCC-25, 48 h), over 200 µM.
Consider `COc1ccc(OC)c(-c2cc(=O)c3c(O)cccc3o2)c1OC` [Compound 5, 5-hydroxy-2-(2,3,6-trimethoxyphenyl)-4H-chromen-4-one], for which the IC50 in test [1] (Homo sapiens, SCC-25, 24 h) is over 200 µM; in test [1] (Homo sapiens, SCC-25, 48 h), over 200 µM.
